How the values were obtained:
[1] = test system: C57BL/6N mice; assay: Evaluation of NIK-333 and ATRA for toxicity in mice (Example 2); assay type: in vivo, mouse; conditions: oral once per day for 2 weeks, versus soybean oil control
Experimental: 7-Week old C57BL/6N mice (Charles River Japan) were given with MK-333 or ATRA once per day for 2 weeks by forcible continuous oral administration. After completion of the test, S-TG concentrations and testis weights of individual mice were measured. To the control group, soybean oil was administered.

[2] = test system: rats; conditions: literature; cited from earlier work
[3] = test system: mice; conditions: literature; cited from earlier work
[4] = test system: SD male rats on high fat diet (HFD32); assay: Action of NIK-333 for decreasing hepatic lipid amount in high fat diet rats (Example 1); assay type: in vivo, rat; conditions: oral once a day for 8 weeks, serum
Source text: For the experiment, 6-week old SD male rats (Charles River Japan) were used. HFD32 (Clea Japan) was used for the high fat diet group, and CE-2 (Clea Japan) was used for the normal control group. The feeding was restricted to 25±3 g for both of the groups. Administration of NIK-333 was started at the same time as the start of the loading of the high fat diet, and the drug was given once a day for 8 weeks by forcible continuous oral administration. After completion of the test, each liver was extracted, and triglyceride (H-TG) amount and cholesterol (H-T-chol) amount in the liver were measured. Hematoxylin-eosin (H.E.) and Oil Red O (O.R.) staining samples were prepared from the extracted liver, and histopathological examination was performed. Degree of fatty degeneration of the liver was graded into five categories on the basis of the examination of the H.E. staining sample, and scores were assigned. Further, from the O.R. staining sample, O.R. positive area in the liver sample area was calculated by using an image analyzer. Furthermore, triglyceride (S-TG), total cholesterol (S-T-chol), alanine aminotransferase (S-ALT), and aspartate aminotransferase (S-AST) levels in serum were measured.

[5] = test system: recurrence of hepatoma; conditions: clinical, during the administration; cited from earlier work

Row | Compound | S-TG concentration (FIG. 5) [1] | testis weight (FIG. 6) [1] | testis weight [2] | testis weight [3] | lipid concentration in blood (S-TG, S-T-chol; FIG. 3) [4] | liver function failure or other adverse effects caused by retinoids [5]
1 | CC1=C(/C=C/C(C)=C/C=C/C(C)=C/C(=O)O)C(C)(C)CCC1 [ATRA, all-trans-retinoic acid] | increases the S-TG concentration | markedly decreases testis weight | decreased testis weight | decreased testis weight | – | –
2 | CC(C)=CCC/C(C)=C/CC/C(C)=C/C=C/C(C)=C/C(=O)O [NIK-333, (2E,4E,6E,10E)-3,7,11,15-tetramethyl-2,4,6,10,14-hexadecapentaenoic acid] | does not affect the concentration | does not affect the weight | – | – | without affecting lipid concentration in blood | not substantially observed
